Results as given in patent US20100234348A1, “COMPOSITIONS AND METHODS FOR POTENTIATING ANTIBIOTIC ACTIVITY” (TRUSTEES OF BOSTON UNIVERSITY, priority 2006, published 2010).
Values after ≈ are worked out from the molar mass of the structure shown.

Test system: quinolone resistant strain laboratory S7
Experiment: Growth of quinolone resistant strain S7 with ciprofloxacin and CB101 forms
Assay type: cell-based
Details: Staphylococcus
Description: The quinolone resistant strain laboratory S7 was tested for growth in the presence of ciprofloxacin at 0.5 μg/mL (MIC at 1 μg/mL) with 20 μg/mL of CB101 (racemic mixture), the (+) enantiomeric form of CB101 or the (−) enantiomeric form of CB101.

Question: Which MIC does the source give for `O=C(O)c1cn(C2CC2)c2cc(N3CCNCC3)c(F)cc2c1=O` [ciprofloxacin] here?
Answer: 1 µg/mL (≈ 3.02 µM)
